From patent publication US11382328B2, “Rapid drug discovery methods for pathogen inactivation” (priority 2019, dated 2022)

Tested on: E. coli strain W3110
Experiment: Synergy assays: Biolog chemical sensitivity panels with Group IB metal, coefficient of drug interaction (CDI) from relative growth
Assay type: cell-based
Conditions: for CDI (coefficient of drug interaction), copper mixed with biocide: Copper (mM) section; for CDI (coefficient of drug interaction), gold + biocide: Gold (μM)
[1] = 1st of 3 copper concentrations (value not shown), 3rd of four biocide concentrations
[2] = 1st of 3 copper concentrations (value not shown), 4th of four biocide concentrations
[3] = 2nd of 3 copper concentrations (value not shown), 3rd of four biocide concentrations
[4] = 2nd of 3 copper concentrations (value not shown), 4th of four biocide concentrations
[5] = 3rd of 3 copper concentrations (value not shown), 3rd of four biocide concentrations
[6] = 3rd of 3 copper concentrations (value not shown), 4th of four biocide concentrations
[7] = Gold section of Table 5, first of three gold concentrations (μM, value not given), biocide concentration 3 of 4
[8] = Gold section of Table 5, first of three gold concentrations (μM, value not given), biocide concentration 4 of 4
[9] = Gold section of Table 5, second of three gold concentrations (μM, value not given), biocide concentration 3 of 4
[10] = Gold section of Table 5, second of three gold concentrations (μM, value not given), biocide concentration 4 of 4
[11] = Gold section of Table 5, third of three gold concentrations (μM, value not given), biocide concentration 3 of 4
[12] = Gold section of Table 5, third of three gold concentrations (μM, value not given), biocide concentration 4 of 4
[13] = Silver 0.5 μM, 3rd of four biocide concentrations, E. coli
[14] = Silver 0.5 μM, 4th of four biocide concentrations, E. coli
[15] = Silver 1.0 μM, 3rd of four biocide concentrations, E. coli
[16] = Silver 1.0 μM, 4th of four biocide concentrations, E. coli
[17] = Silver 5.0 μM, 3rd of four biocide concentrations, E. coli
[18] = Silver 5.0 μM, 4th of four biocide concentrations, E. coli

`CCCCCCCCCCCC[N+](C)(C)C.[Br-]` [Dodecyltrimethyl NH4^+ Br^−] was tested, and the “CDI (coefficient of drug interaction), copper mixed with biocide” value (“CDI … with biocide” for short) (1st of 3 copper concentrations (value not shown), 1st of four biocide concentrations) was 1.20, the “CDI … with biocide” value [1] was 1.51 and the “CDI … with biocide” value [2] was “Tox”. For the same compound, the “CDI … with biocide” value (2nd of 3 copper concentrations (value not shown), 1st of four biocide concentrations) was 1.02, the “CDI … with biocide” value (2nd of 3 copper concentrations (value not shown), 2nd of four biocide concentrations) was 1.04 and the “CDI … with biocide” value [3] was “Tox”. The “CDI … with biocide” value [4] was “Tox”, the “CDI … with biocide” value (3rd of 3 copper concentrations (value not shown), 1st of four biocide concentrations) was 0.77 and the “CDI … with biocide” value (3rd of 3 copper concentrations (value not shown), 2nd of four biocide concentrations) was 0.73. The “CDI … with biocide” value [5] was 1.63, the “CDI … with biocide” value [6] was “Tox” and the “CDI (coefficient of drug interaction)” value (Gold section of Table 5, first of three gold concentrations (μM, value not given), biocide concentration 1 of 4) was 0.96. For the same compound, the “CDI (coefficient of drug interaction)” value (Gold section of Table 5, first of three gold concentrations (μM, value not given), biocide concentration 2 of 4) was 1.00, the “CDI (coefficient of drug interaction)” value [7] was 0.95 and the “CDI (coefficient of drug interaction)” value [8] was “Tox”. The “CDI (coefficient of drug interaction)” value (Gold section of Table 5, second of three gold concentrations (μM, value not given), biocide concentration 1 of 4) was 0.96, the “CDI (coefficient of drug interaction)” value (Gold section of Table 5, second of three gold concentrations (μM, value not given), biocide concentration 2 of 4) was 0.94 and the “CDI (coefficient of drug interaction)” value [9] was 1.11. The “CDI (coefficient of drug interaction)” value [10] was “Tox”, the “CDI (coefficient of drug interaction)” value (Gold section of Table 5, third of three gold concentrations (μM, value not given), biocide concentration 1 of 4) was 1.02 and the “CDI (coefficient of drug interaction)” value (Gold section of Table 5, third of three gold concentrations (μM, value not given), biocide concentration 2 of 4) was 1.14. For the same compound, the “CDI (coefficient of drug interaction)” value [11] was 1.05, the “CDI (coefficient of drug interaction)” value [12] was “Tox” and the “CDI (coefficient of drug interaction), silver + biocide” value (“CDI … silver + biocide” for short) (Silver 0.5 μM, 1st of four biocide concentrations, E. coli) was 0.63. For the same compound, the “CDI … silver + biocide” value (Silver 0.5 μM, 2nd of four biocide concentrations, E. coli) was 0.91, the “CDI … silver + biocide” value [13] was “Tox” and the “CDI … silver + biocide” value [14] was “Tox”. For the same compound, the “CDI … silver + biocide” value (Silver 1.0 μM, 1st of four biocide concentrations, E. coli) was 1.00, the “CDI … silver + biocide” value (Silver 1.0 μM, 2nd of four biocide concentrations, E. coli) was 1.04 and the “CDI … silver + biocide” value [15] was “Tox”. The “CDI … silver + biocide” value [16] was “Tox”, the “CDI … silver + biocide” value (Silver 5.0 μM, 1st of four biocide concentrations, E. coli) was 0.59 and the “CDI … silver + biocide” value (Silver 5.0 μM, 2nd of four biocide concentrations, E. coli) was 0.47. The “CDI … silver + biocide” value [17] was “Tox” and the “CDI … silver + biocide” value [18] was “Tox”.

With `CCn1cc(C(=O)O)c(=O)c2ccc(C)nc21` [Nalidixic Acid] the “CDI … with biocide” value [1] was “Tox”, the “CDI … with biocide” value [2] was “Tox” and the “CDI … with biocide” value [3] was “Tox”. For the same compound, the “CDI … with biocide” value [4] was “Tox”, the “CDI … with biocide” value [5] was “Tox” and the “CDI … with biocide” value [6] was “Tox”. The “CDI (coefficient of drug interaction)” value [7] was “Tox”, the “CDI (coefficient of drug interaction)” value [8] was “Tox” and the “CDI (coefficient of drug interaction)” value [9] was “Tox”. The “CDI (coefficient of drug interaction)” value [10] was “Tox”, the “CDI (coefficient of drug interaction)” value [11] was “Tox” and the “CDI (coefficient of drug interaction)” value [12] was “Tox”. For the same compound, the “CDI … silver + biocide” value [13] was “Tox”, the “CDI … silver + biocide” value [14] was “Tox” and the “CDI … silver + biocide” value [15] was “Tox”. The “CDI … silver + biocide” value [16] was “Tox”, the “CDI … silver + biocide” value [17] was “Tox” and the “CDI … silver + biocide” value [18] was “Tox”.

In the case of `CC1(C)S[C@@H]2[C@H](NC(=O)[C@H](NC(=O)N3CCNC3=O)c3ccccc3)C(=O)N2[C@H]1C(=O)O` [aziocillin], the “CDI (coefficient of drug interaction)” value (Copper (mM), 1st of 3 copper concentrations (head line not shown), biocide concentration 1 of 4, E. coli) is reported as 0.97, the “CDI (coefficient of drug interaction)” value (Copper (mM), 1st of 3 copper concentrations (head line not shown), biocide concentration 2 of 4, E. coli) is reported as 1.05 and the “CDI (coefficient of drug interaction)” value (Copper (mM), 1st of 3 copper concentrations (head line not shown), biocide concentration 3 of 4, E. coli) is reported as 1.08. For the same compound, the “CDI (coefficient of drug interaction)” value (Copper (mM), 1st of 3 copper concentrations (head line not shown), biocide concentration 4 of 4, E. coli) was “Tox”, the “CDI (coefficient of drug interaction)” value (Copper (mM), 2nd of 3 copper concentrations (head line not shown), biocide concentration 1 of 4, E. coli) was 0.94 and the “CDI (coefficient of drug interaction)” value (Copper (mM), 2nd of 3 copper concentrations (head line not shown), biocide concentration 2 of 4, E. coli) was 0.90. The “CDI (coefficient of drug interaction)” value (Copper (mM), 2nd of 3 copper concentrations (head line not shown), biocide concentration 3 of 4, E. coli) was 0.97, the “CDI (coefficient of drug interaction)” value (Copper (mM), 2nd of 3 copper concentrations (head line not shown), biocide concentration 4 of 4, E. coli) was “Tox” and the “CDI (coefficient of drug interaction)” value (Copper (mM), 3rd of 3 copper concentrations (head line not shown), biocide concentration 1 of 4, E. coli) was 0.78. The “CDI (coefficient of drug interaction)” value (Copper (mM), 3rd of 3 copper concentrations (head line not shown), biocide concentration 2 of 4, E. coli) was 0.70, the “CDI (coefficient of drug interaction)” value (Copper (mM), 3rd of 3 copper concentrations (head line not shown), biocide concentration 3 of 4, E. coli) was 0.61 and the “CDI (coefficient of drug interaction)” value (Copper (mM), 3rd of 3 copper concentrations (head line not shown), biocide concentration 4 of 4, E. coli) was “Tox”. The “CDI (coefficient of drug interaction), gold + biocide” value (shortened to “CDI … gold + biocide”) (first of 3 gold concentrations, biocide concentration 1 of 4) was 0.92, the “CDI … gold + biocide” value (first of 3 gold concentrations, biocide concentration 2 of 4) was 1.01 and the “CDI … gold + biocide” value (first of 3 gold concentrations, biocide concentration 3 of 4) was 0.94. For the same compound, the “CDI … gold + biocide” value (first of 3 gold concentrations, biocide concentration 4 of 4) was 0.64, the “CDI … gold + biocide” value (second of 3 gold concentrations, biocide concentration 1 of 4) was 1.05 and the “CDI … gold + biocide” value (second of 3 gold concentrations, biocide concentration 2 of 4) was 1.09. For the same compound, the “CDI … gold + biocide” value (second of 3 gold concentrations, biocide concentration 3 of 4) was 0.89, the “CDI … gold + biocide” value (second of 3 gold concentrations, biocide concentration 4 of 4) was 0.64 and the “CDI … gold + biocide” value (third of 3 gold concentrations, biocide concentration 1 of 4) was 0.94. For the same compound, the “CDI … gold + biocide” value (third of 3 gold concentrations, biocide concentration 2 of 4) was 0.93, the “CDI … gold + biocide” value (third of 3 gold concentrations, biocide concentration 3 of 4) was 0.93 and the “CDI … gold + biocide” value (third of 3 gold concentrations, biocide concentration 4 of 4) was 0.47. For the same compound, the CDI (Silver 0.5 μM, biocide concentration 1 of 4) was 0.90, the CDI (Silver 0.5 μM, biocide concentration 2 of 4) was 1.07 and the CDI (Silver 0.5 μM, biocide concentration 4 of 4) was “Tox”. The CDI (Silver 1.0 μM, biocide concentration 1 of 4) was 0.97, the CDI (Silver 1.0 μM, biocide concentration 2 of 4) was 0.90 and the CDI (Silver 1.0 μM, biocide concentration 3 of 4) was 1.14. The CDI (Silver 1.0 μM, biocide concentration 4 of 4) was “Tox”, the CDI (Silver 5.0 μM, biocide concentration 1 of 4) was 1.03 and the CDI (Silver 5.0 μM, biocide concentration 2 of 4) was 1.08. The CDI (Silver 5.0 μM, biocide concentration 3 of 4) was 0.70 and the CDI (Silver 5.0 μM, biocide concentration 4 of 4) was “Tox”.
